Tests used:
Assay type in all cases: in vivo
[1] = tested on: sicklepod (Cassia obtusifolia, CASOB); experiment: Pre-emerge test, greenhouse herbicide activity screening; conditions: rating scale 0-100, 14 days after application
Method in brief: (§1)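 Plants grown in 10 cm pots of sandy loam mix received acetone-dissolved compounds through a moving flat-fan nozzle. Doses ranged from 15 to 1000 g ai/ha. Pre-emerge pots were seeded one day earlier, post-emerge pots 8–21 days earlier. Fourteen days on, each pot was graded 0–100 for damage.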

[2] = tested on: velvetleaf (Abutilon theophrasti, ABUTH); experiment: as above; conditions: rating scale 0-100, 14 days after application
Method in brief: as §1

[3] = tested on: barnyardgrass (Echinochloa crus-galli, ECHCG); experiment: as above; conditions: rating scale 0-100, 14 days after application
Method in brief: as §1

[4] = tested on: johnsongrass (Sorghum halepense, SORHA); experiment: as above; conditions: rating scale 0-100, 14 days after application
Method in brief: as §1

[5] = tested on: lambsquarters (Chenopodium album, CHEAL); experiment: as above; conditions: rating scale 0-100, 14 days after application
Method in brief: as §1

[6] = tested on: green foxtail (Setaria viridis, SETVI); experiment: as above; conditions: rating scale 0-100, 14 days after application
Method in brief: as §1

[7] = tested on: large crabgrass (Digitaria sanguinalis, DIGSA); experiment: as above; conditions: rating scale 0-100, 14 days after application
Method in brief: as §1

[8] = tested on: ivyleaf morningglory (Ipomoea hederacea, IPOHE); experiment: as above; conditions: rating scale 0-100, 14 days after application
Method in brief: as §1

[9] = tested on: upland rice (Oryza sp., var. Tebonnet, RICE); experiment: Pre-emerge test, crop safety; conditions: rating scale 0-100, 14 days after application
Method in brief: (§2)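 Compounds in acetone were track-sprayed at 187 l/ha, 15–1000 g ai/ha, onto sandy loam pots. Pre-emerge seeds were sown one day before spraying, with surface watering afterwards. Post-emerge plants were at the 2–3 leaf stage and sprayed with 0.25% v/v non-ionic surfactant. Injury was rated 0–100 at 14 days.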

[10] = tested on: field corn (Zea mays L., var. Dekalb 535, CORN); experiment: Pre-emerge test, crop safety; conditions: rating scale 0-100, 14 days after application
Method in brief: as §2

[11] = tested on: sicklepod (Cassia obtusifolia, CASOB); experiment: Post-emerge test, greenhouse herbicide activity screening; conditions: rating scale 0-100 (0 no damage, 100 complete death), 14 days after application
Method in brief: (§3)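 Rating: 0–100 visual injury, 14 DAA. Application: acetone, 187 l/ha, 15–1000 g ai/ha, flat-fan track sprayer with nozzle 40–45 cm above soil or canopy. Post-emerge runs used 0.25% v/v surfactant on 2–3 leaf plants.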

[12] = tested on: velvetleaf (Abutilon theophrasti, ABUTH); experiment: as above; conditions: rating scale 0-100 (0 no damage, 100 complete death), 14 days after application
Method in brief: as §3

[13] = tested on: barnyardgrass (Echinochloa crus-galli, ECHCG); experiment: as above; conditions: rating scale 0-100 (0 no damage, 100 complete death), 14 days after application
Method in brief: as §3

[14] = tested on: redroot pigweed (Amaranthus retroflexus, AMARE); experiment: as above; conditions: rating scale 0-100 (0 no damage, 100 complete death), 14 days after application
Method in brief: as §3

[15] = tested on: johnsongrass (Sorghum halepense, SORHA); experiment: as above; conditions: rating scale 0-100 (0 no damage, 100 complete death), 14 days after application
Method in brief: as §3

[16] = tested on: common ragweed (Ambrosia artemisizfolia L., AMBEL); experiment: as above; conditions: rating scale 0-100 (0 no damage, 100 complete death), 14 days after application
Method in brief: as §3

[17] = tested on: lambsquarters (Chenopodium album, CHEAL); experiment: as above; conditions: rating scale 0-100 (0 no damage, 100 complete death), 14 days after application
Method in brief: as §3

[18] = tested on: green foxtail (Setaria viridis, SETVI); experiment: as above; conditions: rating scale 0-100 (0 no damage, 100 complete death), 14 days after application
Method in brief: as §3

[19] = tested on: large crabgrass (Digitaria sanguinalis, DIGSA); experiment: as above; conditions: rating scale 0-100 (0 no damage, 100 complete death), 14 days after application
Method in brief: as §3

[20] = tested on: ivyleaf morningglory (Ipomoea hederacea, IPOHE); experiment: as above; conditions: rating scale 0-100 (0 no damage, 100 complete death), 14 days after application
Method in brief: as §3

[21] = tested on: upland rice (Oryza sp., var. Tebonnet, RICE); experiment: Post-emerge test, crop safety; conditions: rating scale 0-100 (0 no damage, 100 complete death), 14 days after application
Method in brief: (§4)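 Each test used a mechanized track sprayer delivering 187 l/ha of acetone solution at 15–1000 g ai/ha. Post-emerge foliage at 2–3 leaves was treated with added 0.25% v/v non-ionic surfactant and bottom-watered only. Injury was assessed on day 14, where 100 means total kill.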

[22] = tested on: field corn (Zea mays L., var. Dekalb 535, CORN); experiment: Post-emerge test, crop safety; conditions: rating scale 0-100 (0 no damage, 100 complete death), 14 days after application
Method in brief: as §4

[23] = tested on: redroot pigweed (Amaranthus retroflexus, AMARE); experiment: Pre-emerge test, greenhouse herbicide activity screening; conditions: rating scale 0-100, 14 days after application
Method in brief: as §1

Structure (SMILES): CCOC(=O)C(Br)Cc1c(OC)c(Cl)cc(F)c1-n1c(=O)cc(C(F)(F)F)n(C)c1=O (single isomer, unassigned) [14-33]
- Pre-emerge herbicidal activity, phytotoxicity rating CASOB ([1]; 63 g ai/ha): 0
- Pre-emerge herbicidal activity, phytotoxicity rating CASOB ([1]; 250 g ai/ha): 0
- Pre-emerge herbicidal activity, phytotoxicity rating ABUTH ([2]; 63 g ai/ha): 20
- Pre-emerge herbicidal activity, phytotoxicity rating ABUTH ([2]; 250 g ai/ha): 90
- Pre-emerge herbicidal activity, phytotoxicity rating ECHCG ([3]; 63 g ai/ha): 0
- Pre-emerge herbicidal activity, phytotoxicity rating ECHCG ([3]; 250 g ai/ha): 0
- Pre-emerge herbicidal activity, phytotoxicity rating SORHA ([4]; 63 g ai/ha): 0
- Pre-emerge herbicidal activity, phytotoxicity rating SORHA ([4]; 250 g ai/ha): 30
- Pre-emerge herbicidal activity, phytotoxicity rating CHEAL ([5]; 63 g ai/ha): 0
- Pre-emerge herbicidal activity, phytotoxicity rating CHEAL ([5]; 250 g ai/ha): 90
- Pre-emerge herbicidal activity, phytotoxicity rating SETVI ([6]; 63 g ai/ha): 0
- Pre-emerge herbicidal activity, phytotoxicity rating SETVI ([6]; 250 g ai/ha): 50
- Pre-emerge herbicidal activity, phytotoxicity rating DIGSA ([7]; 63 g ai/ha): 0
- Pre-emerge herbicidal activity, phytotoxicity rating DIGSA ([7]; 250 g ai/ha): 99
- Pre-emerge herbicidal activity, phytotoxicity rating IPOHE ([8]; 63 g ai/ha): 0
- Pre-emerge herbicidal activity, phytotoxicity rating IPOHE ([8]; 250 g ai/ha): 0
- Pre-emerge phytotoxicity rating, crop damage RICE ([9]; 63 g ai/ha): 0
- Pre-emerge phytotoxicity rating, crop damage RICE ([9]; 250 g ai/ha): 10
- Pre-emerge phytotoxicity rating, crop damage CORN ([10]; 63 g ai/ha): 10
- Pre-emerge phytotoxicity rating, crop damage CORN ([10]; 250 g ai/ha): 20
- Post-emerge Herbicidal Activity, phytotoxicity rating CASOB ([11]; Rate 63 g ai/ha): 0
- Post-emerge Herbicidal Activity, phytotoxicity rating CASOB ([11]; Rate 250 g ai/ha): 0
- Post-emerge Herbicidal Activity, phytotoxicity rating ABUTH ([12]; Rate 63 g ai/ha): 90
- Post-emerge Herbicidal Activity, phytotoxicity rating ABUTH ([12]; Rate 250 g ai/ha): 100
- Post-emerge Herbicidal Activity, phytotoxicity rating ECHCG ([13]; Rate 63 g ai/ha): 100
- Post-emerge Herbicidal Activity, phytotoxicity rating ECHCG ([13]; Rate 250 g ai/ha): 100
- Post-emerge Herbicidal Activity, phytotoxicity rating AMARE ([14]; Rate 63 g ai/ha): 100
- Post-emerge Herbicidal Activity, phytotoxicity rating AMARE ([14]; Rate 250 g ai/ha): 100
- Post-emerge Herbicidal Activity, phytotoxicity rating SORHA ([15]; Rate 63 g ai/ha): 10
- Post-emerge Herbicidal Activity, phytotoxicity rating SORHA ([15]; Rate 250 g ai/ha): 95
- Post-emerge Herbicidal Activity, phytotoxicity rating AMBEL ([16]; Rate 63 g ai/ha): 0
- Post-emerge Herbicidal Activity, phytotoxicity rating AMBEL ([16]; Rate 250 g ai/ha): 100
- Post-emerge Herbicidal Activity, phytotoxicity rating CHEAL ([17]; Rate 63 g ai/ha): 20
- Post-emerge Herbicidal Activity, phytotoxicity rating CHEAL ([17]; Rate 250 g ai/ha): 70
- Post-emerge Herbicidal Activity, phytotoxicity rating SETVI ([18]; Rate 63 g ai/ha): 40
- Post-emerge Herbicidal Activity, phytotoxicity rating SETVI ([18]; Rate 250 g ai/ha): 90
- Post-emerge Herbicidal Activity, phytotoxicity rating DIGSA ([19]; Rate 63 g ai/ha): 70
- Post-emerge Herbicidal Activity, phytotoxicity rating DIGSA ([19]; Rate 250 g ai/ha): 100
- Post-emerge Herbicidal Activity, phytotoxicity rating IPOHE ([20]; Rate 63 g ai/ha): 20
- Post-emerge Herbicidal Activity, phytotoxicity rating IPOHE ([20]; Rate 250 g ai/ha): 20
- Post-emerge phytotoxicity rating RICE (crop damage) ([21]; Rate 63 g ai/ha): 0
- Post-emerge phytotoxicity rating RICE (crop damage) ([21]; Rate 250 g ai/ha): 0
- Post-emerge phytotoxicity rating CORN (crop damage) ([22]; Rate 63 g ai/ha): 10
- Post-emerge phytotoxicity rating CORN (crop damage) ([22]; Rate 250 g ai/ha): 95
- Pre-emerge herbicidal activity, phytotoxicity rating AMARE ([23]; 63 g ai/ha): 100
- Pre-emerge herbicidal activity, phytotoxicity rating AMARE ([23]; 250 g ai/ha): 100
